These results are taken from patent publication US10065990B2, “Cyclic peptide compound, and preparation method, pharmaceutical composition and use thereof” (HANGZHOU GUANYU BIO-MEDICAL CO., LTD, priority 2013, dated 2018).

One assay addresses T1, HDAC7 (Homo sapiens, UniProt Q8WUI4).
T1 sequence (Q8WUI4 1-952): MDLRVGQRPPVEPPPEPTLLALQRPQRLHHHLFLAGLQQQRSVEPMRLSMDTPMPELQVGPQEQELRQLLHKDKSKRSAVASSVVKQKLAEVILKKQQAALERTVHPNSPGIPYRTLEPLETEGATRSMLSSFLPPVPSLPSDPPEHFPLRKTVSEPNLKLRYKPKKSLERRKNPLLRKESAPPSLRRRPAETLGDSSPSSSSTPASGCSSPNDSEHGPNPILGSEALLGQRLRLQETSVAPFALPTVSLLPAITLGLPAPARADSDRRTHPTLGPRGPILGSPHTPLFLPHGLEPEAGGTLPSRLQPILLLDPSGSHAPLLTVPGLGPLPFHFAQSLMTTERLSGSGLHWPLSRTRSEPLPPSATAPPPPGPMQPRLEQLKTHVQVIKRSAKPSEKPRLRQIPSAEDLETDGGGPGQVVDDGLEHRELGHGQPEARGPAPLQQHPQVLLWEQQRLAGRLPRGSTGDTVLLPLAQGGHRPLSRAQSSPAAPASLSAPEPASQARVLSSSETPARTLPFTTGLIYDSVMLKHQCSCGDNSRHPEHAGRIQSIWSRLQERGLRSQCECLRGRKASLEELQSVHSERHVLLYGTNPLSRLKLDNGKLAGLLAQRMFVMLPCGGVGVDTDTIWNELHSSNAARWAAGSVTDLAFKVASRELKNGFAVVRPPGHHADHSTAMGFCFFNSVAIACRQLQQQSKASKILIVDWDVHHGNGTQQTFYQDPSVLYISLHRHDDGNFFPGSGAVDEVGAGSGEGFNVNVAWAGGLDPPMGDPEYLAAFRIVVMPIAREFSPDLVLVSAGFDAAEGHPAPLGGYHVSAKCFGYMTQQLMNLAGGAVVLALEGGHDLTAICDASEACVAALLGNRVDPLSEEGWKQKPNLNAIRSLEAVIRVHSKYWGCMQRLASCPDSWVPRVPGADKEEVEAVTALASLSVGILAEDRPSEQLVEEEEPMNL
In words: HDAC biochemical activity measurement (fluorescent substrate deacetylation).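 For all read-outs here: fluorogenic deacetylation assay using acetyl-lysine substrate at 20 µM, enzyme and compound incubated 30 min at 37 °C, then developer added, fluorescence read at 360/460 nm.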 The settings on record: for IC50 HDAC7: 37° C. 30 minutes.

Assay [1] deals with A549 (human lung cancer cells). The assay can be described thus: MTT cancer cell growth inhibition. Format: cell-based. The settings on record: Homo sapiens, A549, 72 h, MTT, 72 hours incubation, read-out: GI50 A54. An outline of the steps:
(§1)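 GI50 values come from viability measured by MTT reduction at 570 nm. Plated overnight at 1500 cells per well, cultures received drug in three parallel wells across 10^−5–10^−10 M final and were incubated 72 h at 37° C. under 5% CO2 before MTT for 4 h.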

For assay [2], the system named is BGC-823 (human gastric cancer cells). The assay can be described thus: MTT cancer cell growth inhibition. Type of assay: cell-based. Conditions: Homo sapiens, BGC-823, 72 h, MTT, 72 hours incubation, read-out: GI50 BG. An outline of the steps: as §1
Assay [3] deals with Bel-7402 (human hepatoma cells). The assay can be described thus: MTT cancer cell growth inhibition. Format: cell-based. The settings on record: Homo sapiens, Bel-7402, 72 h, MTT, 72 hours incubation, Bel-7402 cells; read-out: GI50 Bel-7402. Summed up:
as §1

In assay [4] the test system is DU145 (human prostate cancer cells). In words: MTT cancer cell growth inhibition. Format: cell-based. Conditions: Homo sapiens, DU-145, 72 h, MTT, 72 hours incubation, read-out: GI50 Du1. An outline of the steps: as §1
Assay [5] concerns H1975 (non-small cell lung adenocarcinoma). In words: MTT cancer cell growth inhibition. Format: cell-based. The settings on record: Homo sapiens, NCI-H1975, 72 h, MTT, 72 hours incubation, H1975 cells; read-out: GI50 H1975. Summed up:
as §1

In assay [6] the test system is HCC827 (human non-small cell lung cancer cells). In words: MTT cancer cell growth inhibition. Type of assay: cell-based. The settings on record: Homo sapiens, HCC827, 72 h, MTT, 72 hours incubation, HCC827 cells; read-out: GI50 HCC827. An outline of the steps: as §1
In assay [7] the test system is HT1080 (human fibrosarcoma cells). The assay can be described thus: MTT cancer cell growth inhibition. Format: cell-based. Conditions: Homo sapiens, HT-1080, 72 h, MTT, 72 hours incubation, read-out: GI50 HT1. An outline of the steps:
as §1

The subject of assay [8] is Hela (human cervical cancer cells). In words: MTT cancer cell growth inhibition. Format: cell-based. Conditions: Homo sapiens, HeLa, 72 h, MTT, 72 hours incubation, read-out: GI50 Hela. An outline of the steps: as §1
The test system of assay [9] is Huh-7 (human hepatoma cells). The assay can be described thus: MTT cancer cell growth inhibition. The settings on record: Homo sapiens, Huh-7, 72 h, MTT, 72 hours incubation, Huh-7 cells; read-out: GI50 Huh-7. Format: cell-based. Summed up:
as §1

Assay [10] deals with K562 (human leukemia cells). In words: MTT cancer cell growth inhibition. Type of assay: cell-based. Conditions: Homo sapiens, K562, 72 h, MTT, 72 hours incubation, K562 cells; read-out: GI50 K562. Summed up: as §1
Assay [11] deals with KBM-5 (human chronic myelogenous leukemia). In words: MTT cancer cell growth inhibition. The settings on record: Homo sapiens, KBM5, 72 h, MTT, 72 hours incubation, KBM-5 cells; read-out: GI50 KBM-5. Format: cell-based. An outline of the steps: as §1
The test system of assay [12] is KBM5-T315I (human chronic myelogenous leukemia). The assay can be described thus: MTT cancer cell growth inhibition. The settings on record: Homo sapiens, 72 h, MTT, 72 hours incubation, KBM5-T315I cells; read-out: GI50 KBM5-T315I. Type of assay: cell-based. Summed up: as §1
Assay [13] relates to MCF-7 (human breast cancer cells). The assay can be described thus: MTT cancer cell growth inhibition. Type of assay: cell-based. The settings on record: Homo sapiens, MCF7, 72 h, 72 hours incubation, read-out: GI50 MCF. An outline of the steps: as §1
Assay [14] has as its system MDA-MB-231 (breast cancer cells). In words: MTT cancer cell growth inhibition. Format: cell-based. Conditions: Homo sapiens, MDA-MB-231, 72 h, read-out: GI50 MDA-MB-231, MTT, 72 hours incubation, MDA-MB-231 cells. An outline of the steps: as §1
Assay [15] concerns MOLT-4 (human acute lymphoblastic leukemia cells). In words: MTT cancer cell growth inhibition. Type of assay: cell-based. The settings on record: Homo sapiens, MOLT-4, 72 h, MTT, 72 hours incubation, read-out: GI50 Mol. An outline of the steps: as §1
Assay [16] has as its system N-87 (human gastric cancer cells). The assay can be described thus: MTT cancer cell growth inhibition. The settings on record: Homo sapiens, 72 h, MTT, 72 hours incubation, N-87 cells; read-out: GI50 N-87. Type of assay: cell-based. Summed up:
as §1

The subject of assay [17] is PANC-1 (Pac-1, human pancreatic cancer cells). In words: MTT cancer cell growth inhibition. Type of assay: cell-based. The settings on record: Homo sapiens, PANC-1, 72 h, MTT, 72 hours incubation, read-out: GI50 PAN. Summed up:
as §1

For assay [18], the system named is SGC-7901 (human gastric cancer cells). The assay can be described thus: MTT cancer cell growth inhibition. Format: cell-based. The settings on record: Homo sapiens, SGC-7901, 72 h, MTT, 72 hours incubation, SGC-7901 cells; read-out: GI50 SGC-7901. An outline of the steps: as §1
For assay [19], the system named is U937 (human leukemia cells). In words: MTT cancer cell growth inhibition. The settings on record: Homo sapiens, U-937, 72 h, MTT, 72 hours incubation, read-out: GI50 U93. Type of assay: cell-based. An outline of the steps:
as §1

Assay [20] relates to lncap (prostate cancer cells). The assay can be described thus: MTT cancer cell growth inhibition. Type of assay: cell-based. Conditions: Homo sapiens, LNCaP, 72 h, MTT, 72 hours incubation, read-out: GI50 lnca. An outline of the steps:
as §1

Where two headings read alike, the source gives them in different places.

Take `C=C1NC(=O)c2ccc(F)c(n2)CNC(=O)C[C@@H](/C=C/CCSC(C)=O)OC(=O)[C@H](C(C)C)NC1=O` [Compound 86]: the “IC50 HDAC7” value at HDAC7 is “no activity”. Also, the GI50 – broadly, the concentration that inhibits growth by half – in assay [1] is 20 nM; in assay [2] it was 30 nM; in assay [3], 82 nM; in assay [4] it was 30 nM; in [5], 39 nM; in assay [6], 82 nM. In addition, the GI50 in assay [7] was determined as 80 nM; in assay [8], 60 nM; in assay [9], 37 nM; in [10], 38 nM; in [11], 61 nM; in [12], 34 nM. The GI50 in assay [13] came out at 30 nM; in assay [14], 37 nM; in [15] it was 30 nM; in [16], 37 nM; in assay [17], 80 nM; in assay [18] it was 28 nM. Further, the GI50 in assay [19] and in assay [20] was 30 nM in each case.

As to `C/C=C1\NC(=O)c2ccc(F)c(n2)CNC(=O)C[C@@H](/C=C/CCSC(=O)CCCCCCC)OC(=O)[C@H](C(C)C)NC1=O` [Example 32], the “IC50 HDAC7” value against HDAC7 is recorded as “no activity”. Besides, the GI50 is 40 nM in [1]; 60 nM in [2]; 67 nM in [3]; 30 nM in assay [4]; 53 nM in [5]; 67 nM in assay [6]. The GI50 in [7] is 60 nM; in assay [8], 70 nM; in assay [9] it was 38 nM; in assay [10], 34 nM; in [11], 71 nM; in assay [12], 58 nM. In addition, the GI50 in [13] turned out to be 50 nM; in assay [14] it was 38 nM; in assay [15], 30 nM; in assay [16] it was 69 nM; in [17], 60 nM; in assay [18] it was 45 nM. The GI50 worked out at 50 nM in assay [19] and 30 nM in assay [20].

As to `CC(=O)SCC/C=C/[C@@H]1CC(=O)NCc2ccc(F)c(n2)C(=O)NC(=C(C)C)C(=O)N[C@@H](C(C)C)C(=O)O1` [Compound 87], the “IC50 HDAC7” value on HDAC7 is “no activity”. Further, the GI50 in assay [1] amounted to 30 nM; in assay [2], 20 nM; in [3] it was 57 nM; in assay [4], 20 nM; in [5] it was 42 nM; in [6] it was 57 nM. In addition, the GI50 in [7] is 50 nM; in assay [8] it was 80 nM; in assay [9] it was 19 nM; in [10], 27 nM; in assay [11] it was 82 nM; in assay [12], 37 nM. Moreover, the GI50 in [13] stood at 30 nM; in [14], 19 nM; in [15] it was 10 nM; in assay [16] it was 21 nM; in assay [17], 50 nM; in [18] it was 37 nM. Besides, the values for the GI50 in assay [19] and in assay [20] were 40 nM and 10 nM, respectively.

For the molecule `C/C=C1\NC(=O)c2cc(SCC)cc(n2)CNC(=O)C[C@@H](/C=C/CCSC(=O)CCCCC)OC(=O)[C@H](C(C)C)NC1=O` [Compound 254], the “IC50 (μM) HDAC7” value against HDAC7 was “no activity”. The GI50 stood at 40 nM in assay [1] (A549 cells); 60 nM in [2] (BGC-823 cells); 31 nM in [3]; 60 nM in [4] (DU145 cells); 18 nM in [5]; 35 nM in assay [6]. For the same molecule, the GI50 in assay [7] (HT1080 cells) was determined as 60 nM; in [8] (Hela cells), 40 nM; in [9], 46 nM; in assay [10], 78 nM; in assay [11], 53 nM; in assay [12] it was 42 nM. Further, the GI50 in [13] (MCF-7 cells) was found to be 50 nM; in assay [14] it was 81 nM; in assay [15] (MOLT-4 cells), 40 nM; in assay [16] it was 64 nM; in [17] (PANC-1 cells), 10 nM; in [18], 87 nM. Also, the GI50 in assay [19] (U937 cells) was found to be 40 nM; in assay [20] (lncap cells) it was 10 nM.
